In brackets after ≈: the same amount, converted by molar mass. Like-named read-outs stand apart in the source and are kept apart here.
Tests used:
[1] = tested on: Staphylococcus aureus ATCC 6538; assay: Antibacterial activity, agar dilution MIC; format: cell-based; details: ATCC6538, read-out: MIC S. aureus
Experimental: (§1) Antibacterial activity of the synthesized compounds 3a–n were determined according to the agar dilution methods for Gram-positive bacteria strains (Staphylococcus aureus ATCC 6538 and Staphylococcus epidermidis ATCC 12228) and Gram-negative bacteria strains (Escherichia coli ATCC 8739 and Pseudomonas aeruginosa ATCC 9027).
(§2) Two Gram-positive bacteria strains (Staphylococcus aureus ATCC 6538 and Staphylococcus epidermidis ATCC 12228) and two Gram-negative bacteria strains (Escherichia coli ATCC 8739 and Pseudomonas aeruginosa ATCC 9027) were used for evaluation of the synthesized N-thioacylated ciprofloxacin derivatives 3a–n. All the strains were obtained from Iranian Microbial Collection (Pasteur Institute of Iran, Tehran, Iran). The antibacterial activity of the synthesized compounds was determined according to the agar dilution methods of the National Committee for Clinical Laboratory Standards[43].
(§3) Briefly, a series of twofold dilutions of test compounds 3a–n and ciprofloxacin, the standard antibiotic, were dissolved in 1 ml of DMSO. Each concentration was added to molten test agars that have been allowed to equilibrate in a water bath to 55 °C, to attain the concentrations ranging from 100 to 0.003 µg/ml. To compare the MIC values; the standard antibiotic, ciprofloxacin was also diluted in the same manner.
(§4) To prepare the inoculums suspensions, the bacteria were cultured on Muller-Hinton agar 12–16 h before the test. On the day of the experiment, a single colony of each bacteria was suspended Muller–Hinton broth to reach the turbidity of 0.5 McFarland standard (0.08–0.1 absorbance at 600 nm), which is approximately equivalent to 1.5 × 10^8 CFU/ml. The suspensions were then diluted at 1:10 in sterile saline to obtain a concentration of 1.5 × 10^7 CFU/ml. The plates were dot inoculated with 2 ul of each bacterial suspension and incubated at 37 °C overnight. The MIC was also defined as the lowest concentration of test compounds that completely prevents the growth of bacteria on agar plate following overnight incubation.

[2] = tested on: Staphylococcus epidermidis ATCC 12228; assay: Antibacterial activity, agar dilution MIC; format: cell-based; details: ATCC12228, read-out: MIC S. epidermidis
Experimental: as §1, §2, §3, §4

[3] = tested on: Pseudomonas aeruginosa ATCC 9027; assay: Antibacterial activity, agar dilution MIC; format: cell-based; details: ATCC9027, read-out: MIC P. aeruginosa
Experimental: as §1, §2, §3, §4

[4] = tested on: Escherichia coli ATCC 8739; assay: Antibacterial activity, agar dilution MIC; format: cell-based; details: ATCC8739
Experimental: as §1, §2, §3, §4

[5] = molecular target: T1, jack bean urease (JBU; EC 3.5.1.5) (Canavalia ensiformis, UniProt P07374); assay: biochemical; details: JB urease, mean ± SEM, at least three experiments
T1 construct: purchased Sigma-Aldrich
T1 sequence (P07374 whole entry, looked up): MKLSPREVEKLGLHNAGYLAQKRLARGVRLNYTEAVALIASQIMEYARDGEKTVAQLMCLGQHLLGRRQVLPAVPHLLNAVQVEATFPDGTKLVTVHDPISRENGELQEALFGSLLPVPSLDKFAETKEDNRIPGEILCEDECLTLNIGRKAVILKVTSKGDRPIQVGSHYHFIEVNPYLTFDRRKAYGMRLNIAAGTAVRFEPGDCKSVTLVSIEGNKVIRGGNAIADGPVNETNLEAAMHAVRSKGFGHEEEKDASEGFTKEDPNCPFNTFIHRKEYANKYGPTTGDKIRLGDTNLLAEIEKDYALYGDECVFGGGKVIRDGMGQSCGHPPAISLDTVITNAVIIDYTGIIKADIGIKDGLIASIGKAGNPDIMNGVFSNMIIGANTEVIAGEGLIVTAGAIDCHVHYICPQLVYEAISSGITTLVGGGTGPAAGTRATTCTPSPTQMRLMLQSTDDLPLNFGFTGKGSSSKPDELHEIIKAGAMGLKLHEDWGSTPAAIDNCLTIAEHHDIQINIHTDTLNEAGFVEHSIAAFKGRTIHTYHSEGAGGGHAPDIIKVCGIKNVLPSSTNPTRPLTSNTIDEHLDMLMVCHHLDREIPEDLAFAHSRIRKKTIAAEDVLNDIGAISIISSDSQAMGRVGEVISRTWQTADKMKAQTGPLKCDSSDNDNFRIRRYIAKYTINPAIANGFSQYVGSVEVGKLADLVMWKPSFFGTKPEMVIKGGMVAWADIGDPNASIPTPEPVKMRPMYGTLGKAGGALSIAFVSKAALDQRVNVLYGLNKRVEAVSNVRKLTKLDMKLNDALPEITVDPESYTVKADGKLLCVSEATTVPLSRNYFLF
Experimental: All chemicals and jack bean urease (JBU; EC 3.5.1.5) were purchased from Sigma-Aldrich. The urease inhibitory activity of N-thioacylated ciprofloxacin derivatives 3a–n was determined by Berthelot colorimetric method. The ammonia (NH3) produced by the urease enzyme along with indicator solutions including hypochlorite (OCl^−) and phenol make a blue-colored indophenol complex and the absorbance was measured at 625 nm by a Synergy H1 Hybrid multimode microplate reader (BioTek, Winooski, VT, USA).
Assay completed in two steps, at the first step the enzyme cocktail for each compound consisted of 50 µl urease enzyme (3 mg/ml in phosphate buffer, pH 7.4), 100 µl of test compound at different concentrations (0–10 mg/ml, in phosphate buffer, pH 7.4) and 850 µl urea solution (30 mM, in phosphate buffer, pH 7.4). This mixture was incubated at 37 °C for 30 min.
For the second step, each 100 µl of the above mixture was added to 500 µl of indicator solutions A (0.5 g phenol and 25 mg sodium nitroprusside in 500 ml distilled water) and 500 µl of B (2.5 g sodium hydroxide and 4.2 ml sodium hypochlorite (5%) in 500 ml distilled water) and further incubated at 37 °C for 30 min. The absorbance of blue-colored indophenol of each cell is related to the percentage of enzyme inhibition using the following equation: I%=1-T/C×100.
In this equation, I (%) is assigned to the percent of enzyme inhibition. (T) is assigned to the absorbance of our test compounds and C is assigned to the negative control absorbance which is the absorbance of our cocktail without any inhibitor compound. Thiourea and hydroxyurea were used as the positive controls. The IC50 values of test compounds were calculated using GraphPad PRISM 8.0 software (GraphPad, San Diego, CA, USA).

[6] = IC50 urease inhibitory activity

## O=C(O)c1cn(C2CC2)c2cc(N3CCNCC3)c(F)cc2c1=O [Ciprofloxacin]
[1]
  MIC: 0.024 µg/mL (≈ 0.0724 µM)
[2]
  MIC: 0.048 µg/mL (≈ 0.145 µM)
[3]
  MIC: 0.048 µg/mL (≈ 0.145 µM)
[4]
  MIC: < 0.003 µg/mL

## O=C(O)c1cn(C2CC2)c2cc(N3CCN(C(=S)c4ccccc4)CC3)c(F)cc2c1=O [Compound 3a, 1-Cyclopropyl-6-fluoro-4-oxo-7-(4-(phenylcarbonothioyl)piperazin-1-yl)-1,4 dihydroquinoline-3-carboxylic acid]
other
  melting point: > 250 °C
[1]
  MIC: 0.048 µg/mL (≈ 0.106 µM)
[2]
  MIC: 0.024 µg/mL (≈ 0.0532 µM)
[3]
  MIC: 6.25 µg/mL (≈ 13.8 µM)
[4]
  MIC: 0.048 µg/mL (≈ 0.106 µM)
[5]; [6]
  IC50: 10.61 ± 0.09 µM

## COc1cccc(C(=S)N2CCN(c3cc4c(cc3F)c(=O)c(C(=O)O)cn4C3CC3)CC2)c1 [Compound 3b, 1-Cyclopropyl-6-fluoro-7-(4-(3-methoxyphenylcarbonothioyl)piperazin-1-yl)-4-oxo-1,4-dihydroquinoline-3-carboxylic acid]
other
  melting point: > 250 °C
[1]
  MIC: 0.048 µg/mL (≈ 0.0997 µM)
[2]
  MIC: 0.024 µg/mL (≈ 0.0498 µM)
[3]
  MIC: 3.12 µg/mL (≈ 6.49 µM)
[4]
  MIC: 0.097 µg/mL (≈ 0.201 µM)
[5]; [6]
  IC50: 17.02 ± 0.16 µM

## Cc1ccc(C(=S)N2CCN(c3cc4c(cc3F)c(=O)c(C(=O)O)cn4C3CC3)CC2)cc1 [Compound 3c, 1-Cyclopropyl-6-fluoro-7-(4-(4-methylphenylcarbonothioyl)piperazin-1-yl)-4-oxo-1,4-dihydroquinoline-3-carboxylic acid]
other
  melting point: > 250 °C
[1]
  MIC: 0.048 µg/mL (≈ 0.103 µM)
[2]
  MIC: 0.024 µg/mL (≈ 0.0516 µM)
[3]
  MIC: 3.12 µg/mL (≈ 6.71 µM)
[4]
  MIC: 0.097 µg/mL (≈ 0.208 µM)
[5]; [6]
  IC50: 20.63 ± 0.19 µM

## O=C(O)c1cn(C2CC2)c2cc(N3CCN(C(=S)c4ccc(F)cc4)CC3)c(F)cc2c1=O [Compound 3d, 1-Cyclopropyl-6-fluoro-7-(4-(4-fluorophenylcarbonothioyl)piperazin-1-yl)-4-oxo-1,4-dihydroquinoline-3-carboxylic acid]
other
  melting point: > 250 °C
[1]
  MIC: 0.097 µg/mL (≈ 0.207 µM)
[2]
  MIC: 0.048 µg/mL (≈ 0.102 µM)
[3]
  MIC: 0.781 µg/mL (≈ 1.66 µM)
[4]
  MIC: 0.097 µg/mL (≈ 0.207 µM)
[5]; [6]
  IC50: 2.94 ± 0.04 µM

## O=C(O)c1cn(C2CC2)c2cc(N3CCN(C(=S)c4ccc(Cl)cc4)CC3)c(F)cc2c1=O [Compound 3e, 7-(4-(4-Chlorophenylcarbonothioyl)piperazin-1-yl)-1-cyclopropyl-6-fluoro-4-oxo-1,4-dihydroquinoline-3-carboxylic acid]
other
  melting point: > 250 °C
[1]
  MIC: 0.048 µg/mL (≈ 0.0988 µM)
[2]
  MIC: 0.048 µg/mL (≈ 0.0988 µM)
[3]
  MIC: 0.781 µg/mL (≈ 1.61 µM)
[4]
  MIC: 0.024 µg/mL (≈ 0.0494 µM)
[5]; [6]
  IC50: 6.55 ± 0.05 µM

## COc1ccc(C(=S)N2CCN(c3cc4c(cc3F)c(=O)c(C(=O)O)cn4C3CC3)CC2)cc1 [Compound 3f, 1-Cyclopropyl-6-fluoro-7-(4-(4-methoxyphenylcarbonothioyl)piperazin-1-yl)-4-oxo-1,4-dihydroquinoline-3-carboxylic acid]
other
  melting point: > 250 °C
[1]
  MIC: 0.024 µg/mL (≈ 0.0498 µM)
[2]
  MIC: 0.024 µg/mL (≈ 0.0498 µM)
[3]
  MIC: 3.12 µg/mL (≈ 6.49 µM)
[4]
  MIC: 0.097 µg/mL (≈ 0.201 µM)
[5]; [6]
  IC50: 21.36 ± 0.08 µM

## O=C(O)c1cn(C2CC2)c2cc(N3CCN(C(=S)c4cccc([N+](=O)[O-])c4)CC3)c(F)cc2c1=O [Compound 3g, 1-Cyclopropyl-6-fluoro-7-(4-(3-nitrophenylcarbonothioyl)piperazin-1-yl)-4-oxo-1,4-dihydroquinoline-3-carboxylic acid]
[1]
  MIC: 0.024 µg/mL (≈ 0.0483 µM)
[2]
  MIC: 0.024 µg/mL (≈ 0.0483 µM)
[3]
  MIC: 0.39 µg/mL (≈ 0.785 µM)
[4]
  MIC: 0.012 µg/mL (≈ 0.0242 µM)
[5]; [6]
  IC50: 5.87 ± 0.07 µM

## O=C(O)c1cn(C2CC2)c2cc(N3CCN(C(=S)c4cccc(F)c4)CC3)c(F)cc2c1=O [Compound 3h, 1-Cyclopropyl-6-fluoro-7-(4-(3-fluorophenylcarbonothioyl)piperazin-1-yl)-4-oxo-1,4-dihydroquinoline-3-carboxylic acid]
[1]
  MIC: 0.048 µg/mL (≈ 0.102 µM)
[2]
  MIC: 0.097 µg/mL (≈ 0.207 µM)
[3]
  MIC: 0.048 µg/mL (≈ 0.102 µM)
[4]
  MIC: < 0.003 µg/mL
[5]; [6]
  IC50: 4.08 ± 0.03 µM

## O=C(O)c1cn(C2CC2)c2cc(N3CCN(C(=S)c4ccccc4F)CC3)c(F)cc2c1=O [Compound 3i, 1-Cyclopropyl-6-fluoro-7-(4-(2-fluorophenylcarbonothioyl)piperazin-1-yl)-4-oxo-1,4-dihydroquinoline-3-carboxylic acid]
other
  melting point: > 250 °C
[1]
  MIC: 0.024 µg/mL (≈ 0.0511 µM)
[2]
  MIC: 0.024 µg/mL (≈ 0.0511 µM)
[3]
  MIC: 2.5 µg/mL (≈ 5.32 µM)
[4]
  MIC: 0.0195 µg/mL (≈ 0.0415 µM)
[5]; [6]
  IC50: 15 ± 0.16 µM

## O=C(O)c1cn(C2CC2)c2cc(N3CCN(C(=S)c4cccc(O)c4)CC3)c(F)cc2c1=O [Compound 3j, 1-Cyclopropyl-6-fluoro-7-(4-(3-hydroxyphenylcarbonothioyl)piperazin-1-yl)-4-oxo-1,4-dihydroquinoline-3-carboxylic acid]
other
  melting point: > 250 °C
[1]
  MIC: 0.097 µg/mL (≈ 0.207 µM)
[2]
  MIC: 0.048 µg/mL (≈ 0.103 µM)
[3]
  MIC: 0.781 µg/mL (≈ 1.67 µM)
[4]
  MIC: 0.024 µg/mL (≈ 0.0513 µM)
[5]; [6]
  IC50: 19.6 ± 0.17 µM

## O=C(O)c1cn(C2CC2)c2cc(N3CCN(C(=S)c4cccc(Oc5ccccc5)c4)CC3)c(F)cc2c1=O [Compound 3k, 1-Cyclopropyl-6-fluoro-4-oxo-7-(4-(3-phenoxyphenylcarbonothioyl)piperazin-1-yl)-1,4-dihydroquinoline-3-carboxylic acid]
other
  melting point: > 250 °C
[1]
  MIC: 0.39 µg/mL (≈ 0.717 µM)
[2]
  MIC: 0.39 µg/mL (≈ 0.717 µM)
[3]
  MIC: 3.12 µg/mL (≈ 5.75 µM)
[4]
  MIC: 0.097 µg/mL (≈ 0.178 µM)
[5]; [6]
  IC50: 32.49 ± 0.32 µM

## O=C(O)c1cn(C2CC2)c2cc(N3CCN(C(=S)c4ccc(Br)cc4)CC3)c(F)cc2c1=O [Compound 3l, 7-(4-(4-Bromophenylcarbonothioyl)piperazin-1-yl)-1-cyclopropyl-6-fluoro-4-oxo-1,4-dihydroquinoline-3-carboxylic acid]
other
  melting point: > 250 °C
[1]
  MIC: 0.048 µg/mL (≈ 0.0905 µM)
[2]
  MIC: 0.048 µg/mL (≈ 0.0905 µM)
[3]
  MIC: 0.848 µg/mL (≈ 1.6 µM)
[4]
  MIC: 0.028 µg/mL (≈ 0.0528 µM)
[5]; [6]
  IC50: 8.21 ± 0.06 µM

## O=C(O)c1cn(C2CC2)c2cc(N3CCN(C(=S)c4cccc(Cl)c4)CC3)c(F)cc2c1=O [Compound 3m, 7-(4-(3-Chlorophenylcarbonothioyl)piperazin-1-yl)-1-cyclopropyl-6-fluoro-4-oxo-1,4-dihydroquinoline-3-carboxylic acid]
other
  melting point: > 250 °C
[1]
  MIC: 0.048 µg/mL (≈ 0.0988 µM)
[2]
  MIC: 0.097 µg/mL (≈ 0.2 µM)
[3]
  MIC: 6.25 µg/mL (≈ 12.9 µM)
[4]
  MIC: 0.048 µg/mL (≈ 0.0988 µM)
[5]; [6]
  IC50: 12.2 ± 0.24 µM

## NC(=O)NO [Hydroxyurea, reference compound]
[5]; read-out: IC50 urease inhibitory activity
  IC50: 100 ± 2.5 µM

Reference: article PMC9378659, “Design and synthesis of new N-thioacylated ciprofloxacin derivatives as urease inhibitors with potential antibacterial activity” (Scientific Reports, 2022)
